# Source: patent US9480259B2, “Pyrazolopyrans having herbicidal and pharmaceutical properties” (BASF SE, priority 2012, dated 2016)
# Target: Arabidopsis thaliana SHMT
# Test: SHMT activity assay (ED50 SHMT), coupled with N5,N10-CH2-THF dehydrogenase, NADH at 340 nm
# Type: biochemical
# Conditions: values given as upper bounds
# Summary of the method: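 His-tagged SHMT purified on Ni-NTA. NADH formation followed at 340 nm for 30 min; ED50 from inhibition of initial velocity.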
# [1] = Arabidopsis thaliana SHMT enzyme assay
# [2] = Table 2, Arabidopsis thaliana SHMT enzyme assay
SMILES,EC50 (Table 2) [nM],also measured
CCC1(c2cccc(Oc3ccccc3)c2)C(C#N)=C(N)Oc2[nH]nc(C)c21 (stereo not drawn) [Compound 2.1.],< 100,
Cc1n[nH]c2c1C(c1ccc(OCCC#N)c(Cl)c1)(C1CCC1)C(C#N)=C(N)O2 (stereo not drawn) [Compound 2.645],< 10,
Cc1n[nH]c2c1C(c1cc(Cl)cc(CCCc3nnn[nH]3)c1)(C1CCC1)C(C#N)=C(N)O2 (stereo not drawn) [Compound 2.677],,EC50 [1]: < 10 nM
Cc1n[nH]c2c1C(c1cc(N3CCOCC3)cc(C(F)(F)F)c1)(C1CCC1)C(C#N)=C(N)O2 (stereo not drawn) [Compound 2.271],,EC50 [2]: < 10 nM
Cc1n[nH]c2c1C(c1cc(Cl)cc(Oc3ccc(O)c(C(F)(F)F)c3)c1)(C1CCC1)C(C#N)=C(N)O2 (stereo not drawn) [Compound 2.597],< 100,
Cc1n[nH]c2c1C(c1cccc(Cl)c1)(C(F)(F)F)C(C#N)=C(N)O2 (stereo not drawn) [Compound 2.87.],< 10000,
Cc1n[nH]c2c1C(c1ccc(Cl)c(Cl)c1)(C1CCC1)C(C#N)=C(N)O2 (stereo not drawn) [Compound 2.193.],< 10,
COc1ccc(C2(C(C)C)C(C#N)=C(N)Oc3[nH]ncc32)cc1Br (stereo not drawn) [Compound 2.322],,EC50 [2]: < 10 nM
Cc1n[nH]c2c1C(c1cc(Cl)cc(SCC#N)c1)(C1CCC1)C(C#N)=C(N)O2 (stereo not drawn) [Compound 2.665],,EC50 [1]: < 10 nM
CCOc1n[nH]c2c1C(c1cc(Cl)cc(Cl)c1)(C(C)C)C(C#N)=C(N)O2 (stereo not drawn) [Compound 2.384],,EC50 [2]: < 10 nM
COC(=O)c1cc(OC)cc(-c2cc(C#N)cc(C3(C4CCC4)C(C#N)=C(N)Oc4[nH]nc(C)c43)c2)c1 (stereo not drawn) [Compound 2.548],< 10,
N#CC1=C(N)Oc2[nH]ncc2C1(c1cc(Cl)cc(Cl)c1)C1(F)CCC1 (stereo not drawn) [Compound 2.288],,EC50 [2]: < 100 nM
COc1c(Cl)cc(C2(C(C)C)C(C#N)=C(N)Oc3[nH]nc(C)c32)cc1Cl (stereo not drawn) [Compound 2.331],,EC50 [2]: < 10 nM
CCc1n[nH]c2c1C(CC)(c1cccc(C(F)(F)F)c1)C(C#N)=C(N)O2 (stereo not drawn) [Compound 2.98.],< 1000,
N#CC1=C(N)Oc2[nH]nc(C3CC3)c2C1(c1cccc(Cl)c1)C1CCC1 (stereo not drawn) [Compound 2.174.],< 100,
CCC1(c2cc(C(F)(F)F)cc(C(F)(F)F)c2)C(C#N)=C(N)Oc2[nH]nc(C3CC3)c21 (stereo not drawn) [Compound 2.121.],< 100,
CCC1(c2ccc(Oc3ccc(C(F)(F)F)cc3Cl)c(C)c2)C(C#N)=C(N)Oc2[nH]nc(C3CC3)c21 (stereo not drawn) [Compound 2.164.],< 10000,
COC(=O)c1cccc(-c2cc(Cl)cc(C3(C4CCC4)C(C#N)=C(N)Oc4[nH]nc(OC)c43)c2)c1 (stereo not drawn) [Compound 2.457],< 10,
CCCC1(c2cc(C#N)cc(C#N)c2)C(C#N)=C(N)Oc2[nH]nc(COC)c21 (stereo not drawn) [Compound 2.593],< 10000,
Cc1n[nH]c2c1C(c1cc(Cl)cc(Cl)c1)(C1CC(F)C1)C(C#N)=C(N)O2 (stereo not drawn) [Compound 2.674],,EC50 [1]: < 10 nM
COCCOCC(=O)N(C)c1cc(C#N)cc(C2(C(C)C)C(C#N)=C(N)Oc3[nH]nc(C)c32)c1 (stereo not drawn) [Compound 2.666],,EC50 [1]: < 10 nM
COC(=O)c1cc(-c2cc(C#N)cc(C3(C4CCC4)C(C#N)=C(N)Oc4[nH]nc(C)c43)c2)cc([N+](=O)[O-])c1 (stereo not drawn) [Compound 2.554],< 10,

SMILES,EC50 (Table 2) [nM],also measured
CCC1(c2cccc(Br)c2)C(C#N)=C(N)Oc2[nH]nc(C)c21 (stereo not drawn) [Compound 2.4.],< 1000,
Cc1n[nH]c2c1C(c1ccc(CCC(=O)O)c(Cl)c1)(C1CCC1)C(C#N)=C(N)O2 (stereo not drawn) [Compound 2.542],< 100,
COc1c(Cl)cc(C2(C3CCC3)C(C#N)=C(N)Oc3[nH]ncc32)cc1Cl (stereo not drawn) [Compound 2.293],,EC50 [2]: < 10 nM
CCc1n[nH]c2c1C(c1ccc(OC)c(Cl)c1)(C1CC1)C(C#N)=C(N)O2 (stereo not drawn) [Compound 2.151.],< 1000,
Cc1n[nH]c2c1C(c1cc(Cl)cc(-c3cccc(C(=O)O)c3)c1)(C1CCC1)C(C#N)=C(N)O2 (stereo not drawn) [Compound 2.482],< 10,
COC(=O)c1ccc(-c2cc(C#N)cc(C3(C4(F)COC4)C(C#N)=C(N)Oc4[nH]nc(C)c43)c2)s1 (stereo not drawn) [Compound 2.676],,EC50 [1]: < 100 nM
CCc1n[nH]c2c1C(c1cccc(C(F)(F)F)c1)(C1CCC1)C(C#N)=C(N)O2 (stereo not drawn) [Compound 2.170.],< 100,
Cc1n[nH]c2c1C(c1cc(C#N)cc(-c3ccc(O)c(C(F)(F)F)c3)c1)(C1CCC1)C(C#N)=C(N)O2 (stereo not drawn) [Compound 2.459],< 10,
Cc1n[nH]c2c1C(c1cc(Cl)cc(N(C)C(=O)CC#N)c1)(C1CCC1)C(C#N)=C(N)O2 (stereo not drawn) [Compound 2.696],,EC50 [1]: < 10 nM
N#CC1=C(N)Oc2[nH]ncc2C1(c1cc(C#N)cc(-c2cscn2)c1)C1CCC1 (stereo not drawn) [Compound 2.352],,EC50 [2]: < 100 nM
CCc1n[nH]c2c1C(c1ccc(OC)c(Cl)c1)(C(C)C)C(C#N)=C(N)O2 (stereo not drawn) [Compound 2.147.],< 1000,
CCCC1(c2cc(C#N)cc(C(F)(F)F)c2)C(C#N)=C(N)Oc2[nH]nc(C)c21 (stereo not drawn) [Compound 2.531],< 10,
N#CC1=C(N)Oc2[nH]ncc2C1(c1cccc(C(F)(F)F)c1)C1CCC1 (stereo not drawn) [Compound 2.195.],< 1000,
Cc1n[nH]c2c1C(c1cc(C#N)cc(N(C)C(=O)C(C)C)c1)(C1CCC1)C(C#N)=C(N)O2 (stereo not drawn) [Compound 2.613],< 10,
Cc1n[nH]c2c1C(c1cc(C#N)cc(-c3cc(Cl)sc3Cl)c1)(C1CCC1)C(C#N)=C(N)O2 (stereo not drawn) [Compound 2.364],,EC50 [2]: < 10 nM
Cc1n[nH]c2c1C(CCC#N)(c1cccc(Cl)c1)C(C#N)=C(N)O2 (stereo not drawn) [Compound 2.100.],< 10000,
CCC(=O)Nc1ccc(C2(CC)C(C#N)=C(N)Oc3[nH]nc(C)c32)cc1 (stereo not drawn) [Compound 2.81.],< 1000,
Cc1n[nH]c2c1C(c1cc(C#N)cc(-c3ccccc3)c1)(C1CCC1)C(C#N)=C(N)O2 (stereo not drawn) [Compound 2.323],,EC50 [2]: < 100 nM
Cc1n[nH]c2c1C(c1cc(C#N)cc(-c3cccc(F)c3)c1)(C1CCC1)C(C#N)=C(N)O2 (stereo not drawn) [Compound 2.327],,EC50 [2]: < 10 nM
N#CC1=C(N)Oc2[nH]ncc2C1(c1cc(Br)cc(C#N)c1)C1(F)CC1 (stereo not drawn) [Compound 2.380],,EC50 [2]: < 10 nM
Cc1n[nH]c2c1C(c1cc(Cl)cc(-c3cccc(F)c3)c1)(C1CCC1)C(C#N)=C(N)O2 (stereo not drawn) [Compound 2.223],,EC50 [2]: < 10 nM
CCC1(c2ccc(OS(=O)(=O)c3ccc(Cl)c(Cl)c3)c(C)c2)C(C#N)=C(N)Oc2[nH]nc(C)c21 (stereo not drawn) [Compound 2.56.],< 10000,

SMILES,EC50 (Table 2) [nM],also measured
Cc1n[nH]c2c1C(c1cc(Cl)cc(C(F)(F)F)c1)(C1CCC1)C(C#N)=C(N)O2 (stereo not drawn) [Compound 2.221],,EC50 [2]: < 10 nM
Cc1n[nH]c2c1C(c1cc(CCCC#N)cc(-c3nnn[nH]3)c1)(C(C)C)C(C#N)=C(N)O2 (stereo not drawn) [Compound 2.711],,EC50 [1]: < 100 nM
N#CC1=C(N)Oc2[nH]ncc2C1(c1cc(Cl)cc(-c2nccs2)c1)C1CCC1 (stereo not drawn) [Compound 2.319],,EC50 [2]: < 10 nM
Cc1n[nH]c2c1C(c1cccc(C(F)F)c1)(C1CCC1)C(C#N)=C(N)O2 (stereo not drawn) [Compound 2.277],,EC50 [2]: < 10 nM
CCC1(c2cc(F)c(F)c(F)c2)C(C#N)=C(N)Oc2[nH]nc(C)c21 (stereo not drawn) [Compound 2.18.],< 1000,
CCC1(c2cccc(C)c2)C(C#N)=C(N)Oc2[nH]nc(C)c21 (racemic) [Compound 2.42.],< 10000,
CCC1(c2cccc(C(F)(F)F)c2)C(C#N)=C(N)Oc2[nH]nc(COC)c21 (racemic) [Compound 2.97.],< 10000,
Cc1n[nH]c2c1C(c1cc(Cl)cc(Oc3ccccc3)c1)(C1CCC1)C(C#N)=C(N)O2 (stereo not drawn) [Compound 2.179.],< 100,
COC(=O)c1cc(C(=O)OC)cc(-c2cc(C#N)cc(C3(C4CCC4)C(C#N)=C(N)Oc4[nH]nc(C)c43)c2)c1 (stereo not drawn) [Compound 2.549],< 100,
COc1n[nH]c2c1C(c1cc(Cl)cc(Cl)c1)(C(C)C)C(C#N)=C(N)O2 (stereo not drawn) [Compound 2.378],,EC50 [2]: < 10 nM
N#CC1=C(N)Oc2[nH]ncc2C1(c1cc(Br)cc(Br)c1)C1CC=CC1 (stereo not drawn) [Compound 2.301],,EC50 [2]: < 100 nM
Cc1n[nH]c2c1C(c1cc(Cl)cc(-c3ccc(Cl)c(C(=O)O)c3)c1)(C1CCC1)C(C#N)=C(N)O2 (stereo not drawn) [Compound 2.557],< 10,
Cc1n[nH]c2c1C(c1cc(C#N)cc(-c3ccc(C(=O)O)cc3)c1)(C1CCC1)C(C#N)=C(N)O2 (stereo not drawn) [Compound 2.460],< 10,
CCc1n[nH]c2c1C(CC)(c1cc(C#N)cc(C(F)(F)F)c1)C(C#N)=C(N)O2 (stereo not drawn) [Compound 2.574],< 10,
Cc1n[nH]c2c1C(c1cc(C#N)cc(N(C)Cc3nnn[nH]3)c1)(C1CCC1)C(C#N)=C(N)O2 (stereo not drawn) [Compound 2.691],,EC50 [1]: < 100 nM
Cc1n[nH]c2c1C(c1cc(Cl)cc(N(C)C(=O)CCCc3nnn[nH]3)c1)(C1CCC1)C(C#N)=C(N)O2 (stereo not drawn) [Compound 2.701],,EC50 [1]: < 100 nM
CCc1n[nH]c2c1C(CC)(c1cc(Cl)cc(C#N)c1)C(C#N)=C(N)O2 (stereo not drawn) [Compound 2.573],< 100,
Cc1n[nH]c2c1C(CC(C)C)(c1cccc(Cl)c1)C(C#N)=C(N)O2 (stereo not drawn) [Compound 2.126.],< 1000,
Cc1n[nH]c2c1C(c1cc(Cl)cc(Cl)c1)(C(C)C)C(C#N)=C(N)O2 (stereo not drawn) [Compound 2.112.],< 10,
Cc1n[nH]c2c1C(c1ccc(F)c(OC(F)(F)F)c1)(C1CCC1)C(C#N)=C(N)O2 (stereo not drawn) [Compound 2.265],,EC50 [2]: < 10 nM
Cc1n[nH]c2c1C(c1cc(C#N)cc(N(C)CC#N)c1)(C1CCC1)C(C#N)=C(N)O2 (stereo not drawn) [Compound 2.631],< 10,
CCc1n[nH]c2c1C(c1ccc(OC)c(C(F)(F)F)c1)(C1CC1)C(C#N)=C(N)O2 (stereo not drawn) [Compound 2.152.],< 1000,
